Reference: ChEMBL document CHEMBL1649383, “Mode of action of epoxyphomalins A and B and characterization of related metabolites from the marine-derived fungus Paraconiothyrium sp” (J Nat Prod, 2010)

Columns and labels:
[1] = organism: Homo sapiens; assay: Inhibition of caspase like activity of human erythrocyte-derived 20S proteasome after 60 mins by fluorescence assay
[2] = organism: Homo sapiens; assay: Inhibition of chymotrypsin like activity of human erythrocyte-derived 20S proteasome after 60 mins by fluorescence assay
[3] = organism: Homo sapiens; assay: Inhibition of trypsin like activity of human erythrocyte-derived 20S proteasome after 60 mins by fluorescence assay

Row | Activity [1] | Activity [2] | Activity [3] | SMILES
1 | Dose-dependent effect | Dose-dependent effect | Dose-dependent effect | CC1=C[C@@H](O)[C@]2(C[C@H]3C(C)=CC[C@H]4[C@](C)(CO)CCC[C@]34C)O[C@@H]2C1=O
2 | Dose-dependent effect | Dose-dependent effect | Dose-dependent effect | CC1=CC[C@H]2[C@](C)(CO)CCC[C@]2(C)[C@H]1C[C@@]12O[C@@H]1C(=O)C(CO)=C[C@H]2O
